This series is described as follows: Paclitaxel plasma solubility (excess drug equilibrated in rodent plasma, HPLC). It counts as physicochemical. To be noted: 37°C, 24 h equilibration. The text has this: where dC/dt is the dissolution rate, D is the solute diffusion coefficient, V is the volume of the dissolution medium, hd is the diffusion boundary thickness, S is the surface area of the solute, Cs is the saturation solubility of the solute, and Ct(t) is the bulk solute concentration. The stability of the crystalline nanosuspension was monitored for a period of 3 weeks for particle size, PXRD, and chemical stability (by HPLC). […] Excess drug was then removed by centrifugation which was followed by protein precipitation, and the concentration was measured by HPLC with an external standard.

In brackets after ≈: the same amount, converted by molar mass.

The compound `CC(=O)O[C@H]1C(=O)[C@@]2(C)[C@H]([C@H](OC(=O)c3ccccc3)[C@]3(O)C[C@H](OC(=O)[C@H](O)[C@@H](NC(=O)c4ccccc4)c4ccccc4)C(C)=C1C3(C)C)[C@]1(OC(C)=O)CO[C@@H]1C[C@@H]2O` [paclitaxel] showed a solubility at 24 h of 40 µg/mL (≈ 46.8 µM).

As a reminder, the solubility is how much of the substance goes into solution per volume.

The values above are taken from PMC3994220 (Nanoscale Research Letters, 2014).
